“Also recorded” adds a separate entry of the source. Where a SMILES comes first, the peptide text is derived from it. [ ]: non-standard residue; d: D form. The star is where a group is joined. Sta = CC(C)C[C@H](N)[C@@H](O)CC(=O)O; Isovaleryl = CC(C)CC(=O)*; Nle = CCCC[C@H](N)C(=O)O; Cbz = O=C(OCc1ccccc1)*; CH2F = FC*
Columns and labels:
[1] = test system: PC3 cells; assay: Autophagy markers in PC3 cells (EM AVs, GFP-LC3, LC3-II/LC3-I, MDC, AO); format: cell-based, human; settings: 3-MA pretreatment
Protocol: Western blot analysis, immunofluorescence, 1HC and TUNEL assay: For Western blot analysis, total protein lysates were subjected to SDS-PAGE and transferred to nitrocellulose. […] Detection and quantification were performed using an Odyssey infrared scanner (LICOR) using the manufacturer's software. For immunofluorescence staining, cells were fixed in 3% paraformaldehyde and permeabilized with 0.01% digitonin in PBS, followed by a rabbit polyclonal anti-LC3 (Abgent) primary antibody detected with a cy3-conjugated anti-rabbit secondary antibody (Jackson Immunoresearch). For IHC, formalin-fixed, paraffin-embedded specimens were collected. 5-μm-thick paraffin-embedded sections were stained using an anti-Ki-67 (MIB-1, DakoCytomation) antibody with the Dako ARK kit (Dako Corporation). Tissues were counterstained with haematoxylin, dehydrated, and mounted. In all cases, antigen retrieval was performed with the Dako Target Retrieval Kit as per manufacturer's instructions. For TUNEL assay, formalin-fixed, paraffin-embedded sections were stained using an in situ cell death detection kit (POD; Roche Diagnostic) according to the manufacturer's instructions.
Ultrathin sections were stained with uranyl acetate and lead citrate. Numbers of AV were counted on systematically sampled cytoplasmic areas of 4.5 μm^2 (n≧64 per condition). The percent AV area was measured by means of a square mesh grid laid over ≧5 sets of systematically sampled micrographs with each set covering a cytoplasmic area ≧80 μm^2. The average percent of apoptotic nuclei in tumor tissues was calculated from the number of apoptotic nuclei in 3 to 4 sets of 100 systematically counted tumor cell nuclei.
Multispectral imaging flow cytometry: Cells treated with various agents were stained with Acridine Orange and analyzed by the ImageStream system (Amnis Corporation, Seattle, Wash.) using the IDEAS image analysis program. The DNA AOGreen image and the vacuolar AO Red image were first compensated into separate channels, and then the percentage of apoptotic/anucleate cells (based on AO nuclear morphology and intensity) and vacuolated cells (AO Red+) were quantified. […] AORed Intensity is plotted on the second histogram with an arbitrary gate (R5) drawn to include events with the brightest AO Red intensity.

[2] = test system: PC3 cells; assay: PC3 cell viability and cell death (PI exclusion, annexin V, caspase-3/7); format: cell-based, human
Protocol: Cell viability and cell cycle analysis. Cell number and viability was measured using trypan blue exclusion assay using a Vi-Cell Analyzer (Beckman Coulter), or labeled with 1 μg/ml PI in PBS/1% BSA followed by cytofluorometric analysis with a fluorescence-activated cell sorter (FACS) (Becton Dickinson). FITC-conjugated Annexin V was used for the assessment of phosphatidylserine exposure by FACS analysis. Caspase activation was analyzed using a Caspase-Glo 3/7 Assay kit (Promega). For cell cycle analysis, cells were fixed with drop-wise addition of chilled 70% ethanol, washed with PBS and resuspended in staining solution containing 50 μg/ml PI and 60 units of RNAse A. DNA content was analyzed by flow cytometry using the FlowJo and ModFit software (Becton Dickinson).

[3] = test system: PC3 cells; assay: Mitochondrial superoxide (MitoSOX red) and cellular ROS in PC3 cells; format: cell-based, human
Protocol: (B) PC3 cells treated as in A were stained with the Image-iT LIVE green ROS Detection kit and examined by fluorescence microscopy at 24 h. […] (C) Quantification of MitoSOX red and ROS green fluorescence intensities by flow cytometry at 24 h. Cells were treated as in A and B. Error bars represent SEM (n=3).
Because mitochondria are the primary intracellular source of superoxide (O2^−) generation, we analyzed O2^− production using MitoSOX red, an O2^− indicator that accumulates in the mitochondria as a function of membrane potential and fluoresces upon oxidation and subsequent binding to DNA.

[4] = Autophagic vacuole accumulation by side scatter (SSC) in a flow cytometer; format: cell-based
From the text: Inhibitors include 3-phenyl-2-(4-((4-(5-(pyridin-2-yl)-1H-1,2,4-triazol-3-yl)piperidin-1-yl)methyl)phenyl)-1,6-naphthyridin-5(6H)-one (II-3), benzyl 2-(4-(3-ethylureido)phenyl)-4-(1,4-oxazepan-4-yl)-5H-pyrrolo[3,4-d]pyrimidine-6(7H)-carboxylate (III-1); 1-ethyl-3-(4-(4-morpholino-7-(pyrimidin-2-yl)-5,6,7,8-tetrahydropyrido[3,4-d]pyrimidin-2-yl)phenyl)urea (III-2), (R)-1-(44(2-(2-aminopyrimidin-5-yl)-7-methyl-4-morpholinothieno[3,2-d]pyrimidin-6-yl)methyl)piperazin-1-yl)-2-hydroxypropan-1-one (III-3), 4-(2-(1H-indazol-4-yl)-6-((4-(methylsulfonyl)piperazin-1-yl)methyl)thieno[3,2-d]pyrimidin-4-yl)morpholine (III-6), (S)—N-(4-(benzo[d][1,3]dioxol-5-yl)thiazol-2-yl)-N-(3-(2-formylpiperidin-1-yl)propyl)thiophene-2-carboxamide (IV-2) and Rapamycin.
FIG. 14 depicts CQ (10 μM) increases the number and size of autophagic vacuoles when combined with the various mTOR, PI3K, and Akt inhibitors.

| SMILES | rescue of cell death induced by II-4 (Akti) and CQ [2] | autophagic vacuole accumulation (SSC), inhibitor alone [4] | further results |
| --- | --- | --- | --- |
| Cn1cnc(N)c2ncnc1-2 [3-MA, 3-methyladenine] |  |  | effect of 3-MA on LC3-II to -I ratios and MDC+ vacuoles in III-5 and CQ treated cells [1]: suppressed this effect; also recorded: reduced both LC3-II to -I ratios and the accumulation of MDC^+ vacuoles; effect of 3-MA pretreatment on cell death promoted by CQ or Ba in shAkt expressing cells ([2]; 1 mM 3-MA): delayed this effect; also recorded: suppressed the cell death-promoting effect of either CQ or Ba; effect of 3-MA on rate of cell death in III-5 and CQ treated cells ([2]; 3-MA pretreatment): slowed down the rate of cell death; effect of 3-MA pretreatment on ROS levels [3]: reduced ROS signals generated by CQ, Akti and Akti+CQ; also recorded: reduced ROS levels induced by II-4 |
| CO/C1=C\C(C)=C\[C@@H](C)[C@@H](O)[C@@H](C)C/C(C)=C/C=C/[C@H](OC)[C@@H]([C@@H](C)[C@@H](O)[C@H](C)[C@@]2(O)C[C@@H](O)[C@H](C)[C@@H](C(C)C)O2)OC1=O [Ba, bafilomycin A1] |  |  | cell death in combination with shAkt123 ([2]; Dox, 10 μM CQ or […] Ba, 0.5% or 0% FBS): promoted cell death in combination with shAkt 123 |
| CCCNC(=O)[C@H]1O[C@@H]1C(=O)N[C@H](C(=O)N1CCC[C@H]1C(=O)OC)[C@@H](C)CC [CA-074-Me] | Neither of the broad-spectrum cysteine protease inhibitors zFA.fmk and N-Acetyl-Leu-Leu-Nle-CHO nor a more specific cathepsin B inhibitor CA-074-Me showed significant rescue of cell death |  |  |
| O=c1[nH]ccc2nc(-c3ccc(CN4CCC(c5n[nH]c(-c6ccccn6)n5)CC4)cc3)c(-c3ccccc3)cc12 [II-3, 3-phenyl-2-(4-((4-(5-(pyridin-2-yl)-1H-1,2,4-triazol-3-yl)piperidin-1-yl)methyl)phenyl)-1,6-naphthyridin-5(6H)-one] |  | induce increased autophagic vacuole accumulation |  |
| CCNC(=O)Nc1ccc(-c2nc3c(c(N4CCCOCC4)n2)CN(C(=O)OCc2ccccc2)C3)cc1 [III-1, benzyl 2-(4-(3-ethylureido)phenyl)-4-(1,4-oxazepan-4-yl)-5H-pyrrolo[3,4-d]pyrimidine-6(7H)-carboxylate] |  | induce increased autophagic vacuole accumulation |  |
| CCNC(=O)Nc1ccc(-c2nc3c(c(N4CCOCC4)n2)CCN(c2ncccn2)C3)cc1 [III-2, 1-ethyl-3-(4-(4-morpholino-7-(pyrimidin-2-yl)-5,6,7,8-tetrahydropyrido[3,4-d]pyrimidin-2-yl)phenyl)urea] |  | induce increased autophagic vacuole accumulation |  |
| Cc1c(CN2CCN(C(=O)[C@@H](C)O)CC2)sc2c(N3CCOCC3)nc(-c3cnc(N)nc3)nc12 [III-3] |  | induce increased autophagic vacuole accumulation |  |
| O=C[C@@H]1CCCCN1CCCN(C(=O)c1cccs1)c1nc(-c2ccc3c(c2)OCO3)cs1 [IV-2, (S)—N-(4-(benzo[d][1,3]dioxol-5-yl)thiazol-2-yl)-N-(3-(2-formylpiperidin-1-yl)propyl)thiophene-2-carboxamide] |  | induce increased autophagic vacuole accumulation |  |
| CCCC[C@@H](C=O)NC(=O)[C@H](CC(C)C)NC(=O)[C@H](CC(C)C)NC(C)=O [N-Acetyl-Leu-Leu-Nle-CHO] (Ac-Leu-Leu-[Nle]-aldehyde) | Neither of the broad-spectrum cysteine protease inhibitors zFA.fmk and N-Acetyl-Leu-Leu-Nle-CHO nor a more specific cathepsin B inhibitor CA-074-Me showed significant rescue of cell death |  |  |
| CC(C)CC(=O)N[C@H](C(=O)N[C@H](C(=O)N[C@@H](CC(C)C)[C@@H](O)CC(=O)N[C@@H](C)C(=O)N[C@@H](CC(C)C)[C@@H](O)CC(=O)O)C(C)C)C(C)C [pepstatin A] (Isovaleryl-VV[Sta]A[Sta]-OH) |  |  | cell death in combination with II-4 (Akti) [2]: promoted cell death together with Akti-112 |
| CC(NC(=O)[C@H](Cc1ccccc1)NC(=O)OCc1ccccc1)C(=O)CF (stereo partly drawn) [zFA.fmk] | Neither of the broad-spectrum cysteine protease inhibitors zFA.fmk and N-Acetyl-Leu-Leu-Nle-CHO nor a more specific cathepsin B inhibitor CA-074-Me showed significant rescue of cell death |  |  |
| COC(=O)C[C@H](NC(=O)[C@H](C)NC(=O)[C@@H](NC(=O)OCc1ccccc1)C(C)C)C(=O)CF [zVAD.fmk] (Cbz-Val-Ala-Asp(OMe)-CH2F) | partially rescued cell death at all concentrations tested |  |  |

From patent publication US20140004209A1, “AUTOPHAGY INDUCER AND INHIBITOR COMBINATION THERAPY FOR THE TREATMENT OF NEOPLASMS” (GENENTECH, INC., priority 2010, published 2014)
